Reference: patent publication US10544143B2, “4-azaindole compounds” (BRISTOL-MYERS SQUIBB COMPANY, priority 2017, dated 2020)

Tests used:
[1] = target: human TLR7 (Homo sapiens (Human), UniProt Q9NYK1); test: TLR7 inhibition reporter assay (HEK-Blue SEAP); assay type: cell-based; details: HEK-Blue human TLR7 cells, gardiquimod 7.5 μM
[2] = target: human TLR8 (Homo sapiens (Human), UniProt Q9NR97); test: TLR8 inhibition reporter assay (HEK-Blue SEAP); details: read-out: TLR8 IC50; HEK-Blue human TLR8 cells, R848 15.9 μM;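 further: SEAP driven by IFN-β minimal promoter carrying NF-κB and AP-1 sites, compounds dosed 0.05 nM to 50 µM for 22 h, inhibition scaled between agonist-plus-DMSO and reference-inhibitor wells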
human TLR8, sequence (Q9NR97 27-1041): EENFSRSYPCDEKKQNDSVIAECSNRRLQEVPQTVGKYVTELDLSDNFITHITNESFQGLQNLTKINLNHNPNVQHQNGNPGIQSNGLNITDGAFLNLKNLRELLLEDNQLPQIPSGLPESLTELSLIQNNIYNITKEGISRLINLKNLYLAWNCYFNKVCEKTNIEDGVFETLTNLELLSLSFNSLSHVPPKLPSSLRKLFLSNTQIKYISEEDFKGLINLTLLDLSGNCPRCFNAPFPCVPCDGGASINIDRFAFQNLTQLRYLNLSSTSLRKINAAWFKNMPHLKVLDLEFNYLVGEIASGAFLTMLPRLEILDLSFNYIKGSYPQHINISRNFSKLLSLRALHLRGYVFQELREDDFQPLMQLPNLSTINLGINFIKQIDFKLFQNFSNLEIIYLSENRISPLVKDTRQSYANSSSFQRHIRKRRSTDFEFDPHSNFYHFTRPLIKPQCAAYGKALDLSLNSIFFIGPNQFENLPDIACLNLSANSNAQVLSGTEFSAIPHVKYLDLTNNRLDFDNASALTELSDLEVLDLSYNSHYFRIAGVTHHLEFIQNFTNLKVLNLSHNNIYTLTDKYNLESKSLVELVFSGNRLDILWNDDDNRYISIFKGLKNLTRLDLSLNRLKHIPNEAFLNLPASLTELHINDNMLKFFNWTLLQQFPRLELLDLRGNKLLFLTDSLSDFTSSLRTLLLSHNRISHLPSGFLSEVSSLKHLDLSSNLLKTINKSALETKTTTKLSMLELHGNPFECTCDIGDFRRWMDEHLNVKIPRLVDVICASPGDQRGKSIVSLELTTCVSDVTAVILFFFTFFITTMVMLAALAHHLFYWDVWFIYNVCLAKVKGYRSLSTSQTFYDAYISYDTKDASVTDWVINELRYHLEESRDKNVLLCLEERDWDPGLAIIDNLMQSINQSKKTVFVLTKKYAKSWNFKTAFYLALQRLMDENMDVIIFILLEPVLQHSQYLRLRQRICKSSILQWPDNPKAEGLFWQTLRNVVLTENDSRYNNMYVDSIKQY

[3] = target: human TLR9 (Homo sapiens (Human), UniProt Q9NR96); test: TLR9 inhibition reporter assay (HEK-Blue SEAP); details: read-out: TLR9 IC50; HEK-Blue human TLR9 cells, ODN2006 5 nM;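 further: SEAP driven by an IFN-β minimal promoter with NF-κB and AP-1 sites, read after 22 h, compounds dosed 0.05 nM–50 µM, inhibition scaled between agonist plus DMSO and reference-inhibitor wells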
human TLR9, sequence (Q9NR96 26-1032): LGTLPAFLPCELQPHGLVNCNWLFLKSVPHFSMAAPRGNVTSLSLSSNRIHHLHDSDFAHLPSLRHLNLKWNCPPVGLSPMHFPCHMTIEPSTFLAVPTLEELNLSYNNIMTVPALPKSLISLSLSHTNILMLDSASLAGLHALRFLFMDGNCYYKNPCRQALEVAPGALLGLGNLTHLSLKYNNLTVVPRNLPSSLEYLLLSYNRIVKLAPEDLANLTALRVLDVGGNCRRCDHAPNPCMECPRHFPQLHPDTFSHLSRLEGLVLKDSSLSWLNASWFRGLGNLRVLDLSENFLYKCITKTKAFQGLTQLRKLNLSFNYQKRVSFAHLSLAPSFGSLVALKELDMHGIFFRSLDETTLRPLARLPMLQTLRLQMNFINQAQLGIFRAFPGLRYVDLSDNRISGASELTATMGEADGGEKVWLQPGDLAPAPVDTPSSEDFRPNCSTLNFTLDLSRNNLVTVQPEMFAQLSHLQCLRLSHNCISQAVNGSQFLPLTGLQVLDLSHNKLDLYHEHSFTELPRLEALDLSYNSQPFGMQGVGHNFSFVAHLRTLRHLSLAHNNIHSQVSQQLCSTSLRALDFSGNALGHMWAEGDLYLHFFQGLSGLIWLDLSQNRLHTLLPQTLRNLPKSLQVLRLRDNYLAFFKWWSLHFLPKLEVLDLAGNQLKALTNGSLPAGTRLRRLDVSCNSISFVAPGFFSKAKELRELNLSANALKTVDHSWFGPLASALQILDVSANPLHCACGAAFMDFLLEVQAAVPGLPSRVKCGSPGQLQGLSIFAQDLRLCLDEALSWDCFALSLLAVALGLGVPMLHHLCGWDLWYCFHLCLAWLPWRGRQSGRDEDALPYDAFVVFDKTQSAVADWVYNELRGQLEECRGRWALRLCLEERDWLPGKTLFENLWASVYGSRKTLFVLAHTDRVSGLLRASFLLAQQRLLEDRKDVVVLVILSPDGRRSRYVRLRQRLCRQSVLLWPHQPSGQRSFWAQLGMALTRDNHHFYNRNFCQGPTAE

human TLR7, sequence (Q9NYK1 27-1049): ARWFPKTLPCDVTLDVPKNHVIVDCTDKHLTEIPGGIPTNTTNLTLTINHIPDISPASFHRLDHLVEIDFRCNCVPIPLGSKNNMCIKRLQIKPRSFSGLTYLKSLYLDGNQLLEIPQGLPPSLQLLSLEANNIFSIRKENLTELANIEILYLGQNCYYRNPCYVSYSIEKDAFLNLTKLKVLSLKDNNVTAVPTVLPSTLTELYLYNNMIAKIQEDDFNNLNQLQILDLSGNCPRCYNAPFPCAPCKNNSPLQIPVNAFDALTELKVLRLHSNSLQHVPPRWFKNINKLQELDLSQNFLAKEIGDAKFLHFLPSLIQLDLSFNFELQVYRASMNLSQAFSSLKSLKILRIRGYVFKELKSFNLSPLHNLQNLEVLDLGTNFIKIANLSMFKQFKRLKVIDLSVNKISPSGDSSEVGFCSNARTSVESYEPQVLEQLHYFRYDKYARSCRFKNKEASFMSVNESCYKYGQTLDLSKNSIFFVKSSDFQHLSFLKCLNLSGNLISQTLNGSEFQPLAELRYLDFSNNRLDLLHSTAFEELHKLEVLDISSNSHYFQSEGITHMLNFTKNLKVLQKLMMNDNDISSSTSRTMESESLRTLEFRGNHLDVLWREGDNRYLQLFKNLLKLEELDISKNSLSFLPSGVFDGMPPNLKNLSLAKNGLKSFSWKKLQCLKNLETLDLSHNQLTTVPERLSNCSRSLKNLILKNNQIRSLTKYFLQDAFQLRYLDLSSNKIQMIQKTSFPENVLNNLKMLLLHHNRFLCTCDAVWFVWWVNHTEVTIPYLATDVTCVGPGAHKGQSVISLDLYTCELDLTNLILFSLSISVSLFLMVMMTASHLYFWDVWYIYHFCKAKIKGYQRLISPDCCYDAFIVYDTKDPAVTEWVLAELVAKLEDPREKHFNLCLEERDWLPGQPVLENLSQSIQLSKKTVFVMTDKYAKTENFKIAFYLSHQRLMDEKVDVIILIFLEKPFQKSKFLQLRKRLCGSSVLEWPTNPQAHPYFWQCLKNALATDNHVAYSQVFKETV

IC50 [1] | IC50 [2] | IC50 [3] | Structure (SMILES)
0.95 nM | 0.51 nM | 3.07 µM | Cc1c(-c2[nH]c3ccc(N4C[C@H]5C[C@@H]4CN5)nc3c2C(C)C)cn2ncnc2c1C [Example 981]
0.82 nM | 0.12 nM | 6.53 µM | Cc1c(-c2[nH]c3ccc(N4CCN[C@@H](C(C)C)C4)nc3c2C(C)C)cn2ncnc2c1C [Example 983]
0.66 nM | 0.72 nM | 6.31 µM | Cc1c(-c2[nH]c3ccc(N4CCNC[C@@H]4C(C)C)nc3c2C(C)C)cn2ncnc2c1C [Example 992]
0.82 nM | 1.5 nM | 7.23 µM | Cc1c(-c2[nH]c3ccc(N4C[C@@H](C)NC[C@H]4C)nc3c2C(C)C)cn2ncnc2c1C [Example 993]
13 nM | 3.4 nM | 11.8 µM | Cc1c(-c2[nH]c3ccc(N4CCN[C@H](CO)C4)nc3c2C(C)C)cn2ncnc2c1C [Example 994]
1.3 nM | 0.4 nM | 11 µM | Cc1c(-c2[nH]c3ccc(N4CCC(N(C)CC5(C)COC5)CC4)nc3c2C(C)C)cn2ncnc2c1C [Example 996]
18 nM | 3.2 nM | 6.44 µM | COCCNC1CN(c2ccc3[nH]c(-c4cn5ncnc5c(C)c4C)c(C(C)C)c3n2)C1 [Example 1000]
70 nM | 40 nM | 11.7 µM | Cc1c(-c2[nH]c3ccc(NCCN)nc3c2C(C)C)cn2ncnc2c1C [Example 1001]
3.6 nM | 9.6 nM | 0.339 µM | Cc1c(-c2[nH]c3ccc(N4CC5(CN(C(=O)CCN(C)C)C5)C4)nc3c2C(C)C)cn2ncnc2c1C [Example 1006]
3.2 nM | 4 nM | 2.34 µM | Cc1c(-c2[nH]c3ccc(N4CC5(CN(CCCS(C)(=O)=O)C5)C4)nc3c2C(C)C)cn2ncnc2c1C [Example 1007]
0.59 nM | 1.4 nM | 1.69 µM | Cc1c(-c2[nH]c3ccc(N4CC5(C4)CN(C4CCOCC4)C5)nc3c2C(C)C)cn2ncnc2c1C [Example 1012]
11 nM | 9.2 nM | 7.68 µM | COCCN1CC2(C1)CN(c1ccc3[nH]c(-c4cn5ncnc5c(C)c4C)c(C(C)C)c3n1)C2 [Example 1013]
1.3 nM | 16 nM | 3.3 µM | COc1cc(-c2[nH]c3ccc(N4CC5(CN(C)C5)C4)nc3c2C(C)C)cn2ncnc12 [Example 1017]
1.7 nM | 16 nM | 3.28 µM | CCCN1CC2(C1)CN(c1ccc3[nH]c(-c4cc(OC)c5ncnn5c4)c(C(C)C)c3n1)C2 [Example 1019]
1.8 nM | 1.2 nM | 4.54 µM | Cc1c(-c2[nH]c3ccc(C4CC5(C4)CN(C4CCOCC4)C5)nc3c2C(C)C)cn2ncnc2c1C [Example 1024]
4.5 nM | 6.3 nM | 14.5 µM | Cc1c(-c2[nH]c3ccc(C4CC5(C4)CN(CCS(C)(=O)=O)C5)nc3c2C(C)C)cn2ncnc2c1C [Example 1026]
7.6 nM | 2.1 nM | 17 µM | Cc1c(-c2[nH]c3ccc(C4CC5(C4)CN(CC(C)(C)O)C5)nc3c2C(C)C)cn2ncnc2c1C [Example 1028]
1.4 nM | 5 nM | 8.38 µM | Cc1c(-c2[nH]c3ccc(C4CC5(C4)CN(CCC(N)=O)C5)nc3c2C(C)C)cn2ncnc2c1C [Example 1029]
3.1 nM | 1.9 nM | 6.28 µM | Cc1c(-c2[nH]c3ccc(C4CC5(C4)CN(CCCS(C)(=O)=O)C5)nc3c2C(C)C)cn2ncnc2c1C [Example 1030]
1210 nM | 196 nM | 25.4 µM | Cc1c(-c2[nH]c3ccc(N4CCN(CCN(C)C)C(=O)C4)nc3c2C(C)C)cn2ncnc2c1C [Example 1032]

Further lines, the compound ahead of its results:

Structure (SMILES) | IC50 [1] | IC50 [2] | IC50 [3]
Cc1c(-c2[nH]c3ccc(N4C5CNCC4C5)nc3c2C(C)C)cn2ncnc2c1C [Example 978] | 11 nM | 1.8 nM | 11.5 µM
Cc1c(-c2[nH]c3ccc(N4[C@@H]5CC[C@H]4CNC5)nc3c2C(C)C)cn2ncnc2c1C [Example 979] | 1.1 nM | 0.8 nM | 4.29 µM
Cc1c(-c2[nH]c3ccc(N4C[C@H]5CC[C@@H]4CN5)nc3c2C(C)C)cn2ncnc2c1C [Example 980] | 2.2 nM | 2.3 nM | 6.27 µM
Cc1c(-c2[nH]c3ccc(N4CCNCC45CC5)nc3c2C(C)C)cn2ncnc2c1C [Example 982] | 9.8 nM | 20 nM | 32.8 µM
Cc1c(-c2[nH]c3ccc(N4C[C@@H]5CC4CN5)nc3c2C(C)C)cn2ncnc2c1C [Example 984] | 1 nM | 0.85 nM | 3.43 µM
Cc1c(-c2[nH]c3ccc(N4C[C@H]5C[C@@H](C4)N5)nc3c2C(C)C)cn2ncnc2c1C [Example 985] | 1.6 nM | 1.1 nM | 3.9 µM
CCC[C@H]1CNCCN1c1ccc2[nH]c(-c3cn4ncnc4c(C)c3C)c(C(C)C)c2n1 [Example 986] | 0.63 nM | 0.38 nM | 2.82 µM
Cc1c(-c2[nH]c3ccc(N4CCN[C@H](CO)C4)nc3c2C(C)C)cn2ncnc2c1C [Example 987] | 2.9 nM | 0.5 nM | 11.3 µM
CC[C@H]1CNCCN1c1ccc2[nH]c(-c3cn4ncnc4c(C)c3C)c(C(C)C)c2n1 [Example 988] | 0.36 nM | 0.23 nM | 3.77 µM
Cc1c(-c2[nH]c3ccc(N4CCN[C@@H](C)C4)nc3c2C(C)C)cn2ncnc2c1C [Example 989] | 0.69 nM | 0.31 nM | 7.1 µM
Cc1c(-c2[nH]c3ccc(N4C[C@H](C)NC[C@H]4C)nc3c2C(C)C)cn2ncnc2c1C [Example 990] | 0.8 nM | 4 nM | 6.02 µM
Cc1c(-c2[nH]c3ccc(N4C[C@H](C)NC[C@@H]4C)nc3c2C(C)C)cn2ncnc2c1C [Example 991] | 0.27 nM | 0.32 nM | 5.99 µM
CNC1CCN(c2ccc3[nH]c(-c4cn5ncnc5c(C)c4C)c(C(C)C)c3n2)CC1 [Example 995] | 0.56 nM | 0.48 nM | 7.02 µM
Cc1c(-c2[nH]c3ccc(N4CCC(N(C)CC(=O)N(C)C)CC4)nc3c2C(C)C)cn2ncnc2c1C [Example 997] | 2.4 nM | 2.4 nM | 13.6 µM
Cc1c(-c2[nH]c3ccc(N4CCC(N(C)CCS(C)(=O)=O)CC4)nc3c2C(C)C)cn2ncnc2c1C [Example 998] | 1.9 nM | 0.44 nM | 20 µM
Cc1c(-c2[nH]c3ccc(N4CC(NC(C)C)C4)nc3c2C(C)C)cn2ncnc2c1C [Example 999] | 7.5 nM | 2.1 nM | 10.5 µM

Structure (SMILES) | IC50 [1] | IC50 [2] | IC50 [3]
Cc1c(-c2[nH]c3ccc(NCCNC(=O)CN(C)C)nc3c2C(C)C)cn2ncnc2c1C [Example 1002] | 10 nM | 4.6 nM | 1.1 µM
Cc1c(-c2[nH]c3ccc(N4CC5(C4)CN(C(C)C)C5)nc3c2C(C)C)cn2ncnc2c1C [Example 1003] | 1.8 nM | 3.7 nM | 3.16 µM
Cc1c(-c2[nH]c3ccc(N4CC5(CN(CC(C)(C)O)C5)C4)nc3c2C(C)C)cn2ncnc2c1C [Example 1004] | 2.1 nM | 1.3 nM | 2.79 µM
Cc1c(-c2[nH]c3ccc(N4CC5(CN(CCC(N)=O)C5)C4)nc3c2C(C)C)cn2ncnc2c1C [Example 1005] | 4.4 nM | 7.4 nM | 1.66 µM
Cc1c(-c2[nH]c3ccc(N4CC5(CN(CC#N)C5)C4)nc3c2C(C)C)cn2ncnc2c1C [Example 1008] | 15 nM | 32 nM | 13.3 µM
Cc1c(-c2[nH]c3ccc(N4CC5(CN(CC(C)C)C5)C4)nc3c2C(C)C)cn2ncnc2c1C [Example 1009] | 4.5 nM | 7.7 nM | 2.66 µM
Cc1c(-c2[nH]c3ccc(N4CC5(CN(CC(C)(C)C)C5)C4)nc3c2C(C)C)cn2ncnc2c1C [Example 1010] | 3.6 nM | 4.7 nM | 2.43 µM
Cc1c(-c2[nH]c3ccc(N4CC5(C4)CN(C4COC4)C5)nc3c2C(C)C)cn2ncnc2c1C [Example 1011] | 11 nM | 22 nM | 23.7 µM
Cc1c(-c2[nH]c3ccc(N4CC5(CN(CCC#N)C5)C4)nc3c2C(C)C)cn2ncnc2c1C [Example 1014] | 21 nM | 26 nM | 21.9 µM
CCCN1CC2(C1)CN(c1ccc3[nH]c(-c4cn5ncnc5c(C)c4C)c(C(C)C)c3n1)C2 [Example 1015] | 1.3 nM | 7.8 nM | 2.38 µM
COc1cc(-c2[nH]c3ccc(N4CC5(CNC5)C4)nc3c2C(C)C)cn2ncnc12 [Example 1016] | 2.9 nM | 38 nM | 0.641 µM
CCN1CC2(C1)CN(c1ccc3[nH]c(-c4cc(OC)c5ncnn5c4)c(C(C)C)c3n1)C2 [Example 1018] | 1.7 nM | 8.9 nM | 2.78 µM
COc1cc(-c2[nH]c3ccc(N4CC5(C4)CN(C(C)C)C5)nc3c2C(C)C)cn2ncnc12 [Example 1020] | 1.8 nM | 17 nM | 3.86 µM
COc1cc(-c2[nH]c3ccc(N4CC5(CN(CC(C)(C)O)C5)C4)nc3c2C(C)C)cn2ncnc12 [Example 1021] | 4.3 nM | 11 nM | 5.33 µM
Cc1c(-c2[nH]c3ccc(C4CC5(C4)CN(CC4(C)COC4)C5)nc3c2C(C)C)cn2ncnc2c1C [Example 1025] | 3 nM | 0.86 nM | 5.86 µM
COCCN1CC2(CC(c3ccc4[nH]c(-c5cn6ncnc6c(C)c5C)c(C(C)C)c4n3)C2)C1 [Example 1031] | 18 nM | 2 nM | 12.7 µM
